Test results from ChEMBL document CHEMBL4507276 (2021).

What was measured:
[1] = target: 5-hydroxytryptamine receptor 1E (Homo sapiens) (UniProt P28566); settings: Compound concentration 10.0 uM
[2] = target: Protein kinase C epsilon type (Homo sapiens) (UniProt Q02156); assay: PRKCE Invitrogen selectivity data (BI); settings: Compound concentration 3.0 uM
[3] = target: Eukaryotic elongation factor 2 kinase (Homo sapiens) (UniProt O00418); assay: EEF2K Invitrogen selectivity data (BI); settings: Compound concentration 3.0 uM
[4] = target: Glutamate receptor ionotropic, NMDA 2A (Rattus norvegicus) (UniProt Q00959); assay: NMDA/R Cerep selectivity data (BI); settings: Compound concentration 20.0 uM
[5] = test system: Mast/stem cell growth factor receptor Kit (Homo sapiens), P10721 [T670I]; assay: KIT T670I Invitrogen selectivity data (BI); settings: Compound concentration 3.0 uM
[6] = target: Calcium/calmodulin-dependent protein kinase type II subunit delta (Homo sapiens) (UniProt Q13557); assay: CAMK2D Invitrogen selectivity data (BI); settings: Compound concentration 3.0 uM
[7] = target: Fibroblast growth factor receptor 3 (Homo sapiens) (UniProt P22607); assay: FGFR3 Invitrogen selectivity data (BI); settings: Compound concentration 3.0 uM
[8] = target: 5-hydroxytryptamine receptor 2B (Homo sapiens) (UniProt P41595); settings: Compound concentration 10.0 uM
[9] = target: Testis-specific serine/threonine-protein kinase 2 (Homo sapiens) (UniProt Q96PF2); assay: STK22B Invitrogen selectivity data (BI); settings: Compound concentration 3.0 uM
[10] = target: Mitogen-activated protein kinase kinase kinase 10 (Homo sapiens) (UniProt Q02779); assay: MAP3K10 Invitrogen selectivity data (BI); settings: Compound concentration 3.0 uM
[11] = target: T1, Muscarinic acetylcholine receptor M2 (Homo sapiens) (UniProt P08172); assay: M2/HU Eurofins-Panlabs selectivity data (BI); settings: Compound concentration 10.0 uM
T1 sequence (whole entry): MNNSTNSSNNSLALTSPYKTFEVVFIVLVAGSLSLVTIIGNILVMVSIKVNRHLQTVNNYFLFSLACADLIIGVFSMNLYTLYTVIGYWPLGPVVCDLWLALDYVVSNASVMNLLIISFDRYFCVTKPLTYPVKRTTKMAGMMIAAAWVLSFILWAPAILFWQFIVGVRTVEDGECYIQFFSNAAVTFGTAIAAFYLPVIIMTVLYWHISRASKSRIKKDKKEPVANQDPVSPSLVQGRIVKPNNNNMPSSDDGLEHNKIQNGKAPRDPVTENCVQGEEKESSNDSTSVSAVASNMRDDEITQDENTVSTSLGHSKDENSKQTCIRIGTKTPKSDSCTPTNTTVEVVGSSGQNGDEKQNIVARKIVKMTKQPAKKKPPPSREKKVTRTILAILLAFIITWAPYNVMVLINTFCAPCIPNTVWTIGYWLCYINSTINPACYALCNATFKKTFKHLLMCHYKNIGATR

[12] = target: Rho-associated protein kinase 1 (Homo sapiens) (UniProt Q13464); assay: ROCK1 Invitrogen selectivity data (BI); settings: Compound concentration 3.0 uM
[13] = target: D(2) dopamine receptor (Homo sapiens) (UniProt P14416); assay: D2S/HU Eurofins-Panlabs selectivity data (BI); settings: Compound concentration 10.0 uM
[14] = target: T2, NUAK family SNF1-like kinase 1 (Homo sapiens) (UniProt O60285); assay: NUAK1 Invitrogen selectivity data (BI); settings: Compound concentration 3.0 uM
T2 sequence (whole entry): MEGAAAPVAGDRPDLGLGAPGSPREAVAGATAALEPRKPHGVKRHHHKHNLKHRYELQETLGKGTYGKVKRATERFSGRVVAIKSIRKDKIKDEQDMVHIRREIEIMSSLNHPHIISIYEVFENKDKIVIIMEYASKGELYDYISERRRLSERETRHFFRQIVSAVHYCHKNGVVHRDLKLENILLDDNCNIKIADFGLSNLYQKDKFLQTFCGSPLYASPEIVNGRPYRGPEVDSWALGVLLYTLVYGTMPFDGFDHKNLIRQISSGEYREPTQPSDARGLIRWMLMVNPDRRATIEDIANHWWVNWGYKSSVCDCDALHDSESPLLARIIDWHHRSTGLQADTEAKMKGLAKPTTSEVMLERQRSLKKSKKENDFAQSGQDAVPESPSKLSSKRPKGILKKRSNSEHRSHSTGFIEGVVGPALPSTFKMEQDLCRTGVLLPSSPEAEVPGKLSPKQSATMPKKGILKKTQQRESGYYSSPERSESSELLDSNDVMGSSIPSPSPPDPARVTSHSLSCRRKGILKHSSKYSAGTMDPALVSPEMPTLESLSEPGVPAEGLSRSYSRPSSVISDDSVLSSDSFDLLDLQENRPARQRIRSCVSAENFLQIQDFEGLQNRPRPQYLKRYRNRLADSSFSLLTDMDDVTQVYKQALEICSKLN

[15] = target: Glutamate receptor ionotropic, AMPA (Rattus norvegicus) (UniProt P19491+P19492+P19493+P19490); assay: AMPA/R Cerep selectivity data (BI); assay type: protein-complex assay; settings: Compound concentration 20.0 uM
[16] = target: Ephrin type-A receptor 7 (Homo sapiens) (UniProt Q15375); assay: EPHA7 Invitrogen selectivity data (BI); settings: Compound concentration 3.0 uM
[17] = target: T3, Ephrin type-B receptor 1 (Homo sapiens) (UniProt P54762); assay: EPHB1 Invitrogen selectivity data (BI); settings: Compound concentration 3.0 uM
T3 sequence (whole entry): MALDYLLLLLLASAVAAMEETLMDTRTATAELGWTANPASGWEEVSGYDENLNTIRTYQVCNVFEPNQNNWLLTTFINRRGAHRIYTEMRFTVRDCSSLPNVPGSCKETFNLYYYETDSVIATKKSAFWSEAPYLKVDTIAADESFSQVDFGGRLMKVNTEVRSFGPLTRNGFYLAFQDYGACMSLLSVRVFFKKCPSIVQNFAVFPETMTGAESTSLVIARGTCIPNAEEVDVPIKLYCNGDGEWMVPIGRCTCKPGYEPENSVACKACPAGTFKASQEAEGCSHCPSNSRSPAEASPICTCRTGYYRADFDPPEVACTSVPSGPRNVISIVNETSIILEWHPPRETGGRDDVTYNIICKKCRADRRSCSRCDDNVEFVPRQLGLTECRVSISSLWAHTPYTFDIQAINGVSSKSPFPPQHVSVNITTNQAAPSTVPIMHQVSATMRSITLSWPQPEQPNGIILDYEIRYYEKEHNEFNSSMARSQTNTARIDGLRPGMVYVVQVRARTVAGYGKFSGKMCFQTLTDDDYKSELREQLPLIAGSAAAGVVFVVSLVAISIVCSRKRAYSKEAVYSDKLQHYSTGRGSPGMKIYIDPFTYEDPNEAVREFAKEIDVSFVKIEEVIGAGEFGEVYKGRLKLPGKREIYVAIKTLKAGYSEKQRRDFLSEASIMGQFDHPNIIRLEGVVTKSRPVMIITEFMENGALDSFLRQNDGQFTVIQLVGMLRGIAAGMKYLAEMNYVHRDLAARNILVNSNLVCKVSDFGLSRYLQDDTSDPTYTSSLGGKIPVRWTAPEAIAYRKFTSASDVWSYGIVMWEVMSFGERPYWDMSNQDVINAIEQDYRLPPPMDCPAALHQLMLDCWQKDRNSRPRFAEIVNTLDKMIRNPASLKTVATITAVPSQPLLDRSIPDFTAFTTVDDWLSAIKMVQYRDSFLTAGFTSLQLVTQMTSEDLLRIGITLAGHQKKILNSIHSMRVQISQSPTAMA

Chain of Calcium/calmodulin-dependent protein kinase type II subunit delta (Homo sapiens) (Q13557 whole entry): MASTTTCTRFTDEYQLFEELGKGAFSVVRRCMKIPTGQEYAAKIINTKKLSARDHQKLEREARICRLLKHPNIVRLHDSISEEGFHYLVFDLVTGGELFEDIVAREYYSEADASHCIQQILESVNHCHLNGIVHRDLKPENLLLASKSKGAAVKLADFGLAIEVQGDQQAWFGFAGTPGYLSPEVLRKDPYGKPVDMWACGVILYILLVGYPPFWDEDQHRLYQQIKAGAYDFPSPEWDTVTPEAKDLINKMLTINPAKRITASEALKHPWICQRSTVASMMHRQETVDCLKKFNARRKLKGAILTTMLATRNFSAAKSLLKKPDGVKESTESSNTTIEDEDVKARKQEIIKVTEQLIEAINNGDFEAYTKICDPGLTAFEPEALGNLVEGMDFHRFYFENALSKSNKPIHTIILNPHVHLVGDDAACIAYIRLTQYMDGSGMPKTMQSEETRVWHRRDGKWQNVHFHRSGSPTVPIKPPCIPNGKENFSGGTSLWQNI
Chain of Eukaryotic elongation factor 2 kinase (Homo sapiens) (O00418 whole entry): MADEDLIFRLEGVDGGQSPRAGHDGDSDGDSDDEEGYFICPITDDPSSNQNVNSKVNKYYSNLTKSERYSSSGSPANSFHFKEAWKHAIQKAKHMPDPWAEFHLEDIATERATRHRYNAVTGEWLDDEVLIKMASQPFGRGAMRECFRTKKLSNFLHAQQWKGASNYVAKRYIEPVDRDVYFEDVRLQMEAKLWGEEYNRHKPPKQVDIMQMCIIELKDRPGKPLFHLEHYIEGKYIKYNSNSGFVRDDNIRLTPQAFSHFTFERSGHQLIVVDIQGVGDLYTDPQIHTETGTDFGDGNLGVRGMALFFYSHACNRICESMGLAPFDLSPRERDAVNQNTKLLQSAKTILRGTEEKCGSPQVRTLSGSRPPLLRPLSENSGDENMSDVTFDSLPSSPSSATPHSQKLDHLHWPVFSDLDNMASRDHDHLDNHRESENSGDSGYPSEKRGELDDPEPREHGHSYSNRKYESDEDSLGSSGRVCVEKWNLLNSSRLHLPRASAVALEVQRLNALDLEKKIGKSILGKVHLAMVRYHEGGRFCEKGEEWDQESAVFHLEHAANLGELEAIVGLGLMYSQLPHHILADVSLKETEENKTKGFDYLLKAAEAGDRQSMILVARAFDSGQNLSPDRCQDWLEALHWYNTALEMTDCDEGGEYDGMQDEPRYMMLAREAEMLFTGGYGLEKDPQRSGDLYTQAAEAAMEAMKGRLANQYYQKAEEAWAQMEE
Chain of 5-hydroxytryptamine receptor 1E (Homo sapiens) (P28566 whole entry): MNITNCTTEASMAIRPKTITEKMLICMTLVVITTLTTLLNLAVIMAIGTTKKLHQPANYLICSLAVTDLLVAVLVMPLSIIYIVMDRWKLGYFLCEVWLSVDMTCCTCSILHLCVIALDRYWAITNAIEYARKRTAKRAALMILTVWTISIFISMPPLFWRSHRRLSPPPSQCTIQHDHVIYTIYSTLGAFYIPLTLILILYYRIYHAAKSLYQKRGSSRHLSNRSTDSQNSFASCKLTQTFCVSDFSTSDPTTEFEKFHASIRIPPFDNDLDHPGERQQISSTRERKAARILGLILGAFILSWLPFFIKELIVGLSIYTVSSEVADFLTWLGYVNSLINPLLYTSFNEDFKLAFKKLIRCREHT
Chain of Rho-associated protein kinase 1 (Homo sapiens) (Q13464 2-1354 limits assumed): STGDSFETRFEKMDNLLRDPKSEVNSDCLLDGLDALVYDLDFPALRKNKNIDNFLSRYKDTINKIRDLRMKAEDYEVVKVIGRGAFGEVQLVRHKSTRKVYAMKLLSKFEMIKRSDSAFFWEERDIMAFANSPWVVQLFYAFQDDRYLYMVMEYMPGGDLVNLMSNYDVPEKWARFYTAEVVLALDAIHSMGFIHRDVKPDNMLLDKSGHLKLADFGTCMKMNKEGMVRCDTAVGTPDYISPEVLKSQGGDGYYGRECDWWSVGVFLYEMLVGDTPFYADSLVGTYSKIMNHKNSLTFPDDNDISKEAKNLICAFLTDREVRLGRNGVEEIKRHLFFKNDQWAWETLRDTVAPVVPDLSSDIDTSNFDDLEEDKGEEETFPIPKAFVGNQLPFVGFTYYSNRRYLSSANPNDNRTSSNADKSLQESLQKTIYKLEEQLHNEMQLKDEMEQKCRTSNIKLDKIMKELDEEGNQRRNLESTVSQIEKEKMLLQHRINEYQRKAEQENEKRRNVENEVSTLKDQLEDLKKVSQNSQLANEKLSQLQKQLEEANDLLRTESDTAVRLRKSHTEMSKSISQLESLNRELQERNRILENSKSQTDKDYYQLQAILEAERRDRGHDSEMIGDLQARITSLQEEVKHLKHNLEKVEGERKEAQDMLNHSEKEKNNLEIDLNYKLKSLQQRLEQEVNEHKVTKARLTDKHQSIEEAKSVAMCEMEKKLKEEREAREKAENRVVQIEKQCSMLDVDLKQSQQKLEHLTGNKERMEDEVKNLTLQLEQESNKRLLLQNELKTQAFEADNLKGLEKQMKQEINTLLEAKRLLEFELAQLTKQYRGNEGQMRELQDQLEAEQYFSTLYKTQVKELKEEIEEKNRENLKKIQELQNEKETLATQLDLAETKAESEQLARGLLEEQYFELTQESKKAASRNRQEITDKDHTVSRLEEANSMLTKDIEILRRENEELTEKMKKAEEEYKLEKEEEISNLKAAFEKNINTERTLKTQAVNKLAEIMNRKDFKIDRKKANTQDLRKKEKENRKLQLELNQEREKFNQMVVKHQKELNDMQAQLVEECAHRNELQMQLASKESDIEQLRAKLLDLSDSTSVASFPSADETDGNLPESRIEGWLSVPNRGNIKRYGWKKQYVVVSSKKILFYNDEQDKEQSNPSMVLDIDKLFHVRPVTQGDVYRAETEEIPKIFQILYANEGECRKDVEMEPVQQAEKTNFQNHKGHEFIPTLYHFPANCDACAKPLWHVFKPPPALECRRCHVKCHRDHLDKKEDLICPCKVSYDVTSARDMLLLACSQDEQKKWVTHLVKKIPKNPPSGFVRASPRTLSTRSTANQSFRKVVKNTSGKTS
Chain of Fibroblast growth factor receptor 3 (Homo sapiens) (P22607 23-806 limits assumed): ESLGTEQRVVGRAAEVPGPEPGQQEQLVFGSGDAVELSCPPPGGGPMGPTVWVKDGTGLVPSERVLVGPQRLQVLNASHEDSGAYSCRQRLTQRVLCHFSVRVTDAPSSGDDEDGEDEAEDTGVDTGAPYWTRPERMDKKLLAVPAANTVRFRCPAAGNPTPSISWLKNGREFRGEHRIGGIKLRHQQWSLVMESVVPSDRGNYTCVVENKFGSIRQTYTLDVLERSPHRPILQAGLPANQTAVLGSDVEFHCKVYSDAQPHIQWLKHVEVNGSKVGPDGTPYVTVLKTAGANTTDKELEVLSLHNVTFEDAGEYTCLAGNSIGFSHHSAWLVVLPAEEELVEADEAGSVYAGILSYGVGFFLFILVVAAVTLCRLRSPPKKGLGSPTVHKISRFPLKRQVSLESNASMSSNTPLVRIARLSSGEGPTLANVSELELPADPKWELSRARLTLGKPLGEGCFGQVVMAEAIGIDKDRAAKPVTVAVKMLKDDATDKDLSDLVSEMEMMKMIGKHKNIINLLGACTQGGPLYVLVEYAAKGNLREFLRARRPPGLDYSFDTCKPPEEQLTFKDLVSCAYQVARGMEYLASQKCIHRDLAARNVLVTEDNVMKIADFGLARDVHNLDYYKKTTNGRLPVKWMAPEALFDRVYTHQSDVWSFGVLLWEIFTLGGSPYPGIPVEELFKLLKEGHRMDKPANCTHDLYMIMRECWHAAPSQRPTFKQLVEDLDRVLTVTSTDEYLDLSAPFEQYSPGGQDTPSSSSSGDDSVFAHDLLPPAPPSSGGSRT
Chain of Mitogen-activated protein kinase kinase kinase 10 (Homo sapiens) (Q02779 whole entry, looked up): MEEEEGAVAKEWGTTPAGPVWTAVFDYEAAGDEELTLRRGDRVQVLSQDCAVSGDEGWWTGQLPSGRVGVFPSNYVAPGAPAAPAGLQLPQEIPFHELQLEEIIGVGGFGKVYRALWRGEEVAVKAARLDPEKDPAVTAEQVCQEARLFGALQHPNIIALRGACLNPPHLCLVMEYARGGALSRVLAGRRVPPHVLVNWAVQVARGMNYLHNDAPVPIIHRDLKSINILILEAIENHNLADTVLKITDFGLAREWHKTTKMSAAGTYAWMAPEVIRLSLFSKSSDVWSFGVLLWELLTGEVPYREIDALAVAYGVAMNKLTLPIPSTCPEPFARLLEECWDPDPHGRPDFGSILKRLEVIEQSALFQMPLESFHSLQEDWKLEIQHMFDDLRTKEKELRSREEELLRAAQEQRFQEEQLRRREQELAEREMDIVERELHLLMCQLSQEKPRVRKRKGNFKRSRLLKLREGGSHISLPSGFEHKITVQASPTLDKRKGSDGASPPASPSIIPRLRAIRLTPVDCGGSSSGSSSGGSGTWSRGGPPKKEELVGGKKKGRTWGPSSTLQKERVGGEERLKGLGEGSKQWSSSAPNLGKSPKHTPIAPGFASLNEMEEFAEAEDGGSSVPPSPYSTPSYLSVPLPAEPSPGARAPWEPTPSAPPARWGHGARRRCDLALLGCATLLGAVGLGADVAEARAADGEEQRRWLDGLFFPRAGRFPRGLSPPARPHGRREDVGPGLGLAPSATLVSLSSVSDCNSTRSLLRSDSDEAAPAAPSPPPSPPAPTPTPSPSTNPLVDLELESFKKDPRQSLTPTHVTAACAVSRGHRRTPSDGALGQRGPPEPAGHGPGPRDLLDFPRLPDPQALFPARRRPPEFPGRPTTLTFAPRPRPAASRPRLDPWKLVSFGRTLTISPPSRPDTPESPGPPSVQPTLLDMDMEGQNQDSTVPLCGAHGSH
Chain of Testis-specific serine/threonine-protein kinase 2 (Homo sapiens) (Q96PF2 whole entry): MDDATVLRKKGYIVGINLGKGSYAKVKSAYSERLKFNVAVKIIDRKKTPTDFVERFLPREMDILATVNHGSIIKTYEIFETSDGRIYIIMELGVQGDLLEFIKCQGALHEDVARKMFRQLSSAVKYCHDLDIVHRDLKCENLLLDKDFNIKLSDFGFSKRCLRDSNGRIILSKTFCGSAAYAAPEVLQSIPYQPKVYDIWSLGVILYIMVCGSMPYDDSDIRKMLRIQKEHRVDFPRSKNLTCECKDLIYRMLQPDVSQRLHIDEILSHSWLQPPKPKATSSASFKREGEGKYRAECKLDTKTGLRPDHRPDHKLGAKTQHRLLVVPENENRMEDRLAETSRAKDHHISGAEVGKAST

CN(C)C(=O)Cn1cc(-c2nc(C3(c4ccc(-c5cnc(N)nc5)cc4)CC3)no2)cn1 [BI 0153]
inactive: inhibition [1] -7.33%

CN(C)C(=O)Cn1cc(-c2nc([C@@](C)(c3ccc(-c4cnc(N)nc4)cc3)C3CC3)no2)cn1 [BI 665915]
inactive: residual activity [2] 86.5% | residual activity [3] 93.5% | residual activity [4] 90% | residual activity [5] 93% | residual activity [6] 94.5% | residual activity [7] 95.5% | inhibition [8] -5.4% | residual activity [9] 93% | residual activity [10] 88% | residual activity [11] 98% | residual activity [12] 99.5% | residual activity [13] 94% | residual activity [14] 96% | residual activity [15] 105% | residual activity [16] 78% | residual activity [17] 93%
